PMC8911181, “A Novel CDK4/6 and PARP Dual Inhibitor ZC-22 Effectively Suppresses Tumor Growth and Improves the Response to Cisplatin Treatment in Breast and Ovarian Cancer” (International Journal of Molecular Sciences, 2022)

Assays:
SUM-159 cells = assay: Cell viability assay (CCK-8), IC50; type: cell-based; conditions: Homo sapiens, SUM159, 6 days, medium replenished every 2 days
Experimental: (§1) Human breast cancer cell lines MDA-MB-231 and SUM-159, and human ovarian cancer cell lines OVCAR5 and SKOV3 were obtained from the American Type Culture Collection (ATCC). MDA-MB-231 cells were cultured in L-15 medium with 10% fetal bovine serum (FBS), incubated at 37 °C in a humidified incubator without additional CO2. SUM-159 cells were maintained in Dulbecco’s modified Eagle’s medium (DMEM) containing 10% FBS, and OVCAR5 and SKOV3 cells were incubated in Roswell Park Memorial Institute (RPMI)-1640 medium with 10% FBS and cultured at 37 °C in a humidified incubator containing 5% CO2.
(§2) Cell viability assay was performed as described before. Briefly, 2500/well of breast or ovarian cancer cells were seeded into a 96-well plate; grown overnight; treated with indicated concentration of Olaparib, LY2835219, ZC22, LP-1, GC-24, or cisplatin alone or together for an indicated amount of time; and then incubated with Cell Counting kit-8 (CCK-8) substrate (Dojindo, Kumamoto, Kyushu Island, Japan) for 1–2 h at 37 °C. Cell viability was calculated by the absorbance at 450 nm measured by the GloMax Explorer (Promega, Madison, WI, USA). Cells without treatment were set as 100%, and medium control (no cells) was set as 0%.
(§3) Figure 1 Synthesis strategy and activity assay of the novel compounds targeting both PARP and CDK4/6. (A) Synthesis strategy of the three novel compounds GC-24, LP-1, and ZC-22. (B) IC50 of GC-24, LP-1, and ZC-22 in breast and ovarian cancer cells. Cells were treated with increasing concentrations of GC-24, LP 1, or ZC-22 for 6 days with replenishment of medium every 2 days. Cell proliferation was analyzed by CCK-8 assays. (C) The reagents and conditions used for the chemical synthesis of ZC-22 in this study: (a) Pd(AcO)2, BINAP, CS2CO3, 1,4-Dioxane, 100 °C, 12 h; (b) CF3COOH, DCM, Room temperature, 6 h; (c) HOBt, EDCI, DIPEA, DMF, Room temperature, 12 h. TEXT PRINTED IN THE PICTURE: (B) LP-1: MDA-MB-231 IC50 (μM): >50; SUM-159 IC50 (μM): 7.780; OVCAR5 IC50 (μM): 10.11; SKOV3 IC50 (μM): 10.16 | (B) GC-24: MDA-MB-231 IC50 (μM): 33.77; SUM-159 IC50 (μM): 17.77; OVCAR5 IC50 (μM): 26.08; SKOV3 IC50 (μM): >50 | (B) ZC-22: MDA-MB-231 IC50 (μM): 3.608; SUM-159 IC50 (μM): 0.435; OVCAR5 IC50 (μM): 0.758; SKOV3 IC50 (μM): 0.542
(§4) Figure 2 ZC-22 suppresses proliferation of breast and ovarian cancer cells. (A) IC50 of ZC-22, Olaparib, and LY2835219 (Abemaciclib) in breast and ovarian cancer cells. Cells were treated with increasing concentrations of ZC-22, Olaparib, or LY2835219 for 6 days with replenishment of medium every 2 days. Cell proliferation was analyzed by CCK-8 assays. (B) Cell proliferation assay of breast and ovarian cancer cells with indicated treatment. MDA-MB-231 cells were treated with 2 μM Olaparib (OLA) or LY2835219 (LY-2) alone or together (OLA + LY-2) or with ZC-22 alone for 48 or 72 h. SUM-159, OVCAR5, and SKOV3 cells were treated with 0.5 μM OLA or LY-2 alone or together or with ZC-22 alone. Cell proliferation assay was analyzed by CCK-8 assays. Values are means ± SD, n = 3. ns, not significant, * p < 0.05, ** p < 0.01 and *** p < 0.001 for comparisons with the DMSO-treated group using an unpaired t-test. TEXT PRINTED IN THE PICTURE: (A) ZC-22: MDA-MB-231 IC50 (μM): 3.608; SUM-159 IC50 (μM): 0.435; OVCAR5 IC50 (μM): 0.758; SKOV3 IC50 (μM): 0.542 | (A) LY2835219: MDA-MB-231 IC50 (μM): 11.28; SUM-159 IC50 (μM): 0.664; OVCAR5 IC50 (μM): 9.791; SKOV3 IC50 (μM): 1.158 | (A) Olaparib: MDA-MB-231 IC50 (μM): 32.13; SUM-159 IC50 (μM): 19.29; OVCAR5 IC50 (μM): 30.51; SKOV3 IC50 (μM): >50

OVCAR5 cells = assay: Cell viability assay (CCK-8), IC50; type: cell-based; conditions: Homo sapiens, OVCAR-5, 6 days, medium replenished every 2 days
Experimental: as §1, §2, §3, §4

SKOV3 cells = assay: Cell viability assay (CCK-8), IC50; type: cell-based; conditions: Homo sapiens, SK-OV-3, 6 days, medium replenished every 2 days
Experimental: as §1, §2, §3, §4

MDA-MB-231 cells = assay: Cell viability assay (CCK-8), IC50; type: cell-based; conditions: Homo sapiens, 6 days, medium replenished every 2 days
Experimental: as §1, §2, §3, §4

[1] = system: MDA-MB-231 xenograft tumors; assay: Breast cancer xenograft mouse model, tumor growth; type: in vivo, mice; conditions: 1.5 mg/kg cisplatin or 50 mg/kg ZC-22 ip alone or together
Experimental: Six-week-old female athymic nude mice (Homozygous) were purchase from Vital River Laboratories (Beijing, China) and maintained under the guidelines for laboratory animals of Nankai university (NKU). Mice were injected subcutaneously with 2 × 10^6 MDA-MB-231 or 8 × 10^6 OVCAR5 cells. When tumors were 50–100 mm^3 in size, the mice were randomly grouped and treated intraperitoneal (i.p.) with 50 mg/kg of Olaparib, 50 mg/kg of LY2835219, 50 mg/kg of ZC-22, or 1.5 mg/kg of cisplatin alone or in combinations or with the vehicle (PBS containing 10% DMSO and 10% 2-hydroxy-propyl-β-cyclodextrin) every 2 days. Tumor volume was measured every 3–4 days, which was calculated as Length × Width^2/2. At the end of the study, tumor and major organ tissues were harvested by surgery. For histopathological analysis, tissue samples were washed with PBS, fixed in 4% paraformaldehyde (PFA), paraffin-embedded, and sectioned into 7 μm thickness. For Western blot analysis, the tissue samples were dissociated by a tissue-tearor in RIPA buffer containing 1×protease and phosphatase inhibitors.
Figure 4 ZC-22 suppresses growth of breast cancer xenografts. Female NOD-SCID mice were injected subcutaneously with 2 × 10^6 of MDA-MB-231 cells and treated ip daily with 50 mg/kg of Olaparib (OLA) or LY2835219 (LY-2) alone or together (OLA + LY-2) or with ZC-22 alone starting on day 10 after injection of cells when tumors were 50–80 mm^3 in size. Tumor volumes were measured every 2–3 days. […] (B,C) Pictures of (B) and quantification of the size of (C) the MDA-MB-231 xenograft tumors at the end points. […] (E) Quantification of Ki67 (Left) and γH2A.X (Right)-positive cells in immunohistochemical staining of the xenograft tumor tissues. […]
Figure 6 ZC-22 sensitizes breast cancer cells to cisplatin treatment in vivo. […] Tumor volumes were measured every 2–3 days. […] (B,C) Pictures (B) and quantification of the size (C) of the MDA-MB-231 xenograft tumors at the end points. […] (E) Quantification of Ki67 (left) and γH2A.X (right)-positive cells in immunohistochemical staining of the xenograft tumor tissues. […]

Compound | IC50 (SUM-159 cells) [µM] | IC50 (OVCAR5 cells) [µM] | IC50 (SKOV3 cells) [µM] | IC50 (MDA-MB-231 cells) [µM] | growth of the xenograft tumors [1]
CC(=O)c1c(C)c2cnc(Nc3ccc(N4CCN(C(=O)c5cc(Cc6n[nH]c(=O)c7ccccc67)ccc5F)CC4)cn3)nc2n(C2CCCC2)c1=O [GC-24] | 17.8 | 26.1 | > 50 | 33.8 | 
CN(C)C(=O)c1cc2cnc(Nc3ccc(N4CCN(C(=O)c5cc(Cc6n[nH]c(=O)c7ccccc67)ccc5F)CC4)cn3)nc2n1C1CCCC1 [LP-1] | 7.78 | 10.1 | 10.2 | > 50 | 
O=C(c1cc(Cc2n[nH]c(=O)c3ccccc23)ccc1F)N1CCN(C(=O)C2CC2)CC1 [Olaparib, reference compound] | 19.3 | 30.5 | > 50 | 32.1 | 
N.N.[Cl][Pt][Cl] [cisplatin] |  |  |  |  | effectively inhibit growth of the xenograft tumors
